Read-outs that look alike come from different tables or passages of the source.
Columns and labels:
[1] = cited from earlier work

melting point [°C] | Compound | further results
256 | COc1cc(C=C2SC(=O)NC2=O)cc(I)c1O [Example 167, 5-(4-Hydroxy-3-iodo-5-methoxybenzylidene)thiazolidine-2,4-dione] | 
310 to 314 | O=C1NC(=O)/C(=C/c2ccc3cc(O)ccc3c2)S1 [Example 171, 5-(6-Hydroxy-2-naphthylmethylene) thiazolidine-2,4-dione] | 
330 to 333 | O=C1NC(=O)/C(=C/c2c[nH]c3ccc([N+](=O)[O-])cc23)S1 [Example 199, 5-(5-Nitro-1H-indol-3-ylmethylene)thiazolidine-2,4-dione] | 
152 to 154 | O=C1NC(=O)/C(=C/c2c(Cl)cccc2Cl)S1 [Example 229, 5-(2,6-Dichlorobenzylidene)thiazolidine-2,4-dione] | 
331 to 333 | COc1cc(O)cc(OC)c1/C=C1\SC(=O)NC1=O [Example 234, 5-(4-Hydroxy-2,6-dimethoxybenzylidene)thiazolidine-2,4-dione] | 
255 to 256 | COc1cc(OCc2c(F)cccc2[N+](=O)[O-])cc(OC)c1/C=C1\SC(=O)NC1=O [Example 237, 5-[4-(2-Fluoro-6-nitrobenzyloxy)-2,6-dimethoxybenzylidene]thiazolidine-2,4-dione] | 
265 to 266 | O=C1NC(=O)/C(=C/c2cc3ccccc3o2)S1 [Example 238, 5-Benzofuran-2-ylmethylenethiazolidine-2,4-dione] | 
259 to 263 | CN(C)c1ccc(/C=C/C=C2\SC(=O)NC2=O)cc1 [Example 239, 5-[3-(4-Dimethylaminophenyl)allylidene]thiazolidine-2,4-dione] | 
203 to 210 | CC(/C=C1\SC(=O)NC1=O)=C\c1ccccc1 [Example 240, 5-(2-Methyl-3-phenylallylidene)thiazolidine-2,4-dione] | 
251 to 254 | O=C1NC(=O)/C(=C/C(Cl)=C/c2ccccc2)S1 [Example 241, 5-(2-Chloro-3-phenylallylidene)thiazolidine-2,4-dione] | 
338 to 347 | O=C1NC(=O)/C(=C/c2cc3ccccc3[nH]c2=O)S1 [Example 242, 5-(2-Oxo-1,2-dihydroquinolin-3-ylmethylene)thiazolidine-2,4-dione] | 
200 to 202 | c1cc(COc2ccc3ccccc3c2)cc(-c2nnn[nH]2)c1 [Example 572, 5-(3-(Naphthalen-2-yloxymethyl)-phenyl)-1H-tetrazole] | 
 | Asp^B28 human insulin | absorption rates ([1]; in vivo, sc): about 1 hour
 | Co^3+-hexamer: "absorption rates vary between about 1 hour (for rapid-acting insulin analogues ...) and about 4 hours (Co^3+-hexamer)" | absorption rates ([1]; after subcutaneous injection of a soluble preparation, background statement): about 4 hour
 | soluble human insulin hexamer: "inherent limitation of the absorption half-life to about 4 hours for a soluble human insulin hexamer" | absorption half-life ([1]; in vivo, sc): about 4 hours
